Results on 18 compounds are retold here after patent US20260000674A1, “PHARMACEUTICAL COMPOSITION” (GEXVal Inc., priority 2022, published 2026).

Counter-ions that a name gives are not always drawn.

The experiment relates to dermatitis in psoriasis model mice. The experiment in a line: Auricular thickening in imiquimod-induced psoriasis model mice (Test Examples 1 to 7). In kind it is in vivo, male BALB/cCrSlc mice. The conditions noted are these: oral, Day 0 to Day 3. As to the method:
15 mg/ear of imiquimod cream (product name: Beselna cream, manufactured by Mochida Pharmaceutical Co., Ltd.) was repeatedly applied to the right auricle of male BALB/cCrSlc mice (9 weeks old) at once a day for 4 days (Day 0 to Day 3) to prepare psoriasis model mice. One hour before the imiquimod application, Vehicle (0.5% methylcellulose (hereinafter abbreviated as 0.5% MC)), 3 mg/kg body weight MSP (5-HT4 receptor agonist), 3 mg/kg body weight RZT (5-HT1 receptor agonist), 3 mg/kg body weight TDS (5-HT1 receptor agonist), 3 mg/kg body weight LCS (5-HT2 receptor agonist), and 10 mg/kg body weight APR (positive control) were orally administered at 10 mL/kg body weight each (Day 0 to Day 3) (n=6 per administration group). The auricular thickness was measured before the imiquimod cream application (Day 0) and approximately 24 hours after the final administration of each evaluation substance (Day 1 to Day 4), and the difference in auricular thickness (auricular thickening) between Day 0 and Day 4 was evaluated as the degree of inflammation. Day 0 was defined as the day on which the imiquimod cream application was started.
Psoriasis model mice were prepared by the same method as in Test Example 1, and Vehicle (0.5% MC), 3 mg/kg body weight MSP, 30 mg/kg body weight MSP, and 10 mg/kg body weight APR (positive control) were orally administered at 10 mL/kg body weight each (Day 0 to Day 3) (n=6 per administration group). The difference in auricular thickness (auricular thickening) between Day 0 and Day 4 was evaluated as the degree of inflammation.
Psoriasis model mice were prepared by the same method as in Test Example 1, and Vehicle (0.5% MC), 3 mg/kg body weight MSP, 3 mg/kg body weight PCP, 10 mg/kg body weight PCP, 30 mg/kg body weight PCP, 3 mg/kg body weight VRG, 10 mg/kg body weight VRG, 30 mg/kg body weight VRG, and 10 mg/kg body weight APR (positive control) were orally administered at 10 mL/kg each (Day 0 to Day 3) (n=6 per administration group). The difference in auricular thickness (auricular thickening) between Day 0 and Day 4 was evaluated as the degree of inflammation.
Psoriasis model mice were prepared by the same method as in Test Example 1, and Vehicle (0.5% MC), 30 mg/kg body weight MSP, 30 mg/kg body weight CNP, 30 mg/kg body weight VRG, 30 mg/kg body weight CBP, and 10 mg/kg body weight APR (positive control) were orally administered at 10 mL/kg body weight each (Day 0 to Day 3) (n=6 per administration group). The difference in auricular thickness (auricular thickening) between Day 0 and Day 4 was evaluated as the degree of inflammation.
Psoriasis model mice were prepared by the same method as in Test Example 1, and Vehicle (0.5% MC), 30 mg/kg body weight PCP, 30 mg/kg body weight CSP, 30 mg/kg body weight TGR, and 10 mg/kg body weight APR (positive control) were orally administered at 10 mL/kg body weight each (Day 0 to Day 3) (n=6 per administration group). The difference in auricular thickness (auricular thickening) between Day 0 and Day 4 was evaluated as the degree of inflammation.
Psoriasis model mice were prepared by the same method as in Test Example 1, and Vehicle (0.5% MC), 30 mg/kg body weight FCT, 30 mg/kg body weight UMP, 30 mg/kg body weight RLP, 30 mg/kg body weight RZP, 30 mg/kg body weight MSP, and 10 mg/kg body weight APR (positive control) were orally administered at 10 mL/kg body weight each (Day 0 to Day 3) (n=6 per administration group). The difference in auricular thickness (auricular thickening) between Day 0 and Day 4 was evaluated as the degree of inflammation.
Psoriasis model mice were prepared by the same method as in Test Example 1, and Vehicle (0.5% MC), 30 mg/kg body weight NRP, 30 mg/kg body weight CJ-033466, 30 mg/kg body weight RVP, 30 mg/kg body weight E-3620, 30 mg/kg body weight MSP, and 10 mg/kg body weight APR (positive control) were orally administered at 10 mL/kg body weight each (Day 0 to Day 3) (n=6 per administration group). […]

Where [1] appears, read: Test Example 4, FIG. 4, 30 mg/kg body weight.
Setting [2] is: Test Example 7, FIG. 7, 30 mg/kg body weight.
The mark [3] stands for this setting: Test Example 5, FIG. 5, 30 mg/kg body weight.
[4] abbreviates: Test Example 6, FIG. 6, 30 mg/kg body weight.
Setting [5] is: Test Example 1, FIG. 1, 3 mg/kg body weight.
Setting [6] is: Test Example 3, FIG. 3, at all doses (3, 10 and 30 mg/kg body weight).

Turning to `CCOc1cc([C@@H](CS(C)(=O)=O)N2C(=O)c3cccc(NC(C)=O)c3C2=O)ccc1OC` [APR, Apremilast], the “auricular thickening (difference in auricular thickness between Day 0 and Day 4) compared with 0.5% MC” value is recorded as “significantly suppressed the auricular thickening” (Test Example 1, FIG. 1, 10 mg/kg body weight); “significantly suppressed the auricular thickening” (Test Example 3, FIG. 3, 10 mg/kg body weight); “significantly suppressed the auricular thickening” (Test Example 4, FIG. 4, 10 mg/kg body weight); “significantly suppressed the auricular thickening” (Test Example 5, FIG. 5, 10 mg/kg body weight); “significantly suppressed the auricular thickening” (Test Example 6, FIG. 6, 10 mg/kg body weight); “significantly suppressed the auricular thickening” (Test Example 7, FIG. 7, 10 mg/kg body weight).

Turning to `COc1cc(N)c(Cl)cc1C(=O)NC1CCN(Cc2ccccc2)CC1` [CBP, Clebopride malate], the “auricular thickening (difference in auricular thickness between Day 0 and Day 4) compared with 0.5% MC” value under setting [1] is “significantly suppressed the auricular thickening”.

Take `Cc1cn2c(N)c(Cl)cc(C(=O)NCC3CCN(CC(C)C)CC3)c2n1` [CJ-033466]: under setting [2], the “auricular thickening (difference in auricular thickness between Day 0 and Day 4) compared with 0.5% MC” value is “significantly suppressed the auricular thickening”.

Consider `COc1cc(N)c(Cl)cc1C(=O)NC1CCN(CCCOc2ccc(F)cc2)CC1OC` (stereo not shown) [CSP, Cisapride], for which the “auricular thickening (difference in auricular thickness between Day 0 and Day 4) compared with 0.5% MC” value under setting [3] is recorded as “significantly suppressed the auricular thickening”.

For `CC#C[C@H](C)Oc1cc(N)c(Cl)cc1C(=O)NC1C[C@H]2CC[C@@H](C1)N2C.Cl` (stereo partly shown) [E-3620], under setting [2], the “auricular thickening (difference in auricular thickness between Day 0 and Day 4) compared with 0.5% MC” value was “significantly suppressed the auricular thickening”.

`COC(=O)N1CCC(CN2CCC(CNC(=O)c3cccc4nc(C(C)C)[nH]c34)CC2)CC1` [FCT, Felcisetrag]: under setting [4], the “auricular thickening (difference in auricular thickness between Day 0 and Day 4) compared with 0.5% MC” value was “significantly suppressed the auricular thickening”.

`C[C@H]1CNCCc2ccc(Cl)cc21` [LCS, Lorcaserin hydrochloride]: the “auricular thickening (difference in auricular thickness between Day 0 and Day 4) compared with 0.5% MC” value under setting [5] was “none of 3 mg/kg body weight RZT (5-HT1 receptor agonist) (comparative example), 3 mg/kg body weight TDS (5-HT1 receptor agonist) (comparative example), and 3 mg/kg body weight LCS (5-HT2 receptor agonist) (comparative example) suppressed the auricular thickening”.

Consider `COc1cc(N)c(Cl)cc1C(=O)N[C@@H]1CCN(CCCCCC(=O)O[C@H]2CN3CCC2CC3)C[C@@H]1OC` [NRP, Naronapride hydrochloride], for which the “auricular thickening (difference in auricular thickness between Day 0 and Day 4) compared with 0.5% MC” value under setting [2] was “significantly suppressed the auricular thickening”.

Consider `COc1cc(N)c(Cl)cc1C(=O)NCC1CCN(CC[C@H](OC(N)=O)c2ccc(F)cc2)CC1.Cl` [RLP, Relenopride hydrochloride], for which the “auricular thickening (difference in auricular thickness between Day 0 and Day 4) compared with 0.5% MC” value under setting [4] was “significantly suppressed the auricular thickening”.

With `COCCCN1CC[C@@H](CNC(=O)c2cc(Cl)c(N)c3c2OC(C)(C)C3)[C@H](O)C1` [RVP, Revexepride], under setting [2], the “auricular thickening (difference in auricular thickness between Day 0 and Day 4) compared with 0.5% MC” value is “significantly suppressed the auricular thickening”.

`CN(C)CCc1c[nH]c2ccc(Cn3cncn3)cc12` [RZT, Rizatriptan benzoate]: the “auricular thickening (difference in auricular thickness between Day 0 and Day 4) compared with 0.5% MC” value under setting [5] was “none of 3 mg/kg body weight RZT (5-HT1 receptor agonist) (comparative example), 3 mg/kg body weight TDS (5-HT1 receptor agonist) (comparative example), and 3 mg/kg body weight LCS (5-HT2 receptor agonist) (comparative example) suppressed the auricular thickening”.

As to `[H]/N=C(/NCCCCC)N/N=C/c1c[nH]c2ccc(OC)cc12` [TGR, Tegaserod maleate], under setting [3], the “auricular thickening (difference in auricular thickness between Day 0 and Day 4) compared with 0.5% MC” value is given as “significantly suppressed the auricular thickening”.

In the case of `COCCCN1CCC(c2nnc(-c3nn(C(C)C)c4ccccc34)o2)CC1` [UMP, Usmarapride], the “auricular thickening (difference in auricular thickness between Day 0 and Day 4) compared with 0.5% MC” value under setting [4] is listed as “significantly suppressed the auricular thickening”.

Take `CC(C)n1c(=O)c(C(=O)N[C@H]2C[C@H]3CC[C@@H](C2)N3C[C@@H](O)CN(C)S(C)(=O)=O)cc2ccccc21` [VRG, Velusetrag]: the “auricular thickening (difference in auricular thickness between Day 0 and Day 4) compared with 0.5% MC” value was “significantly suppressed the auricular thickening at all doses” under setting [6] and “significantly suppressed the auricular thickening” under setting [1].

With Cinitapride tartrate [CNP], the “auricular thickening (difference in auricular thickness between Day 0 and Day 4) compared with 0.5% MC” value under setting [1] is reported as “significantly suppressed the auricular thickening”.

Turning to Mosapride citrate dihydrate [MSP], the “auricular thickening (difference in auricular thickness between Day 0 and Day 4) compared with 0.5% MC” value is “significantly suppressed the auricular thickening” under setting [5]; “significantly suppressed the auricular thickening in a dose-dependent manner” (Test Example 2, FIG. 2, 3 mg/kg body weight); “significantly suppressed the auricular thickening in a dose-dependent manner” (Test Example 2, FIG. 2, 30 mg/kg body weight); “significantly suppressed the auricular thickening” (Test Example 3, FIG. 3, 3 mg/kg body weight); “significantly suppressed the auricular thickening” under setting [1]; “significantly suppressed the auricular thickening” under setting [4]. Further, the “auricular thickening (difference in auricular thickness between Day 0 and Day 4) compared with 0.5% MC” value under setting [2] is on record as “significantly suppressed the auricular thickening”.

Consider Prucalopride succinate [PCP], for which the “auricular thickening (difference in auricular thickness between Day 0 and Day 4) compared with 0.5% MC” value runs as follows: under setting [6], “significantly suppressed the auricular thickening at all doses”; under setting [3], “significantly suppressed the auricular thickening”.

With Tandospirone citrate [TDS], the “auricular thickening (difference in auricular thickness between Day 0 and Day 4) compared with 0.5% MC” value under setting [5] is “none of 3 mg/kg body weight RZT (5-HT1 receptor agonist) (comparative example), 3 mg/kg body weight TDS (5-HT1 receptor agonist) (comparative example), and 3 mg/kg body weight LCS (5-HT2 receptor agonist) (comparative example) suppressed the auricular thickening”.
